Source: ChEMBL document CHEMBL4190389, “Synthesis and activity of di- or trisubstituted N-(phenoxyalkyl)- or N-{2-[2-(phenoxy)ethoxy]ethyl}piperazine derivatives on the central nervous system” (Bioorg Med Chem Lett, 2018)

Key:
[1] = molecular target: T1, Adrenergic receptor alpha-1 (Rattus norvegicus, UniProt P15823+P23944+P43140); experiment: Displacement of [3H]prazosin from rat cerebral cortex adrenergic receptor alpha1 by liquid scintillation counting method
T1 sequence (P15823 whole entry): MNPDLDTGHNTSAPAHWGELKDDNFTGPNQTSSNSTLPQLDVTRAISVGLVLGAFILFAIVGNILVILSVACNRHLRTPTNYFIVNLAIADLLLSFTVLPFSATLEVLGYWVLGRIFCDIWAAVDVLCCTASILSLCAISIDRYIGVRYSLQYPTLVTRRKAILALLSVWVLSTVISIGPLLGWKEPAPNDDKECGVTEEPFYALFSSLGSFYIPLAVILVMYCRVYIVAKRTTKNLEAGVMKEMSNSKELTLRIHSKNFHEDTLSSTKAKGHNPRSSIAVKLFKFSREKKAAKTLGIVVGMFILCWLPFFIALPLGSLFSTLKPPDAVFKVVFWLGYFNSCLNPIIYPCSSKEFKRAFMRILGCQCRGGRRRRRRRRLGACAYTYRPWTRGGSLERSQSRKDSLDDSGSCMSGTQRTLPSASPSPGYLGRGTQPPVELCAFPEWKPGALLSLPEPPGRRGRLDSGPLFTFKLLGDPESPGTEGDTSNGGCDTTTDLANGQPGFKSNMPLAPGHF
T1 sequence (P23944 whole entry): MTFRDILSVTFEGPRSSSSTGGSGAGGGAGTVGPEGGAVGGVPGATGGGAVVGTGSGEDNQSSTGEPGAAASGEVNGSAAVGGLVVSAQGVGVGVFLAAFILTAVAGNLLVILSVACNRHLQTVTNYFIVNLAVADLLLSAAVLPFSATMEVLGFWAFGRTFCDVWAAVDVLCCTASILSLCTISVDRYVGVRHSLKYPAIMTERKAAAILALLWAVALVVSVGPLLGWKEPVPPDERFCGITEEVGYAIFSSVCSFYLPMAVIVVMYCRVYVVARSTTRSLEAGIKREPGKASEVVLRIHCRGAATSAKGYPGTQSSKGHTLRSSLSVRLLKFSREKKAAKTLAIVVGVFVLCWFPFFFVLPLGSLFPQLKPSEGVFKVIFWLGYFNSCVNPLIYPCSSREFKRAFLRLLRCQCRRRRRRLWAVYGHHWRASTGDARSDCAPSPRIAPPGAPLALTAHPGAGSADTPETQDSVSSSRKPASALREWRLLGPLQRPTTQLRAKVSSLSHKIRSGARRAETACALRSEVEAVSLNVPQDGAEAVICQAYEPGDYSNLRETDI
T1 sequence (P43140 whole entry): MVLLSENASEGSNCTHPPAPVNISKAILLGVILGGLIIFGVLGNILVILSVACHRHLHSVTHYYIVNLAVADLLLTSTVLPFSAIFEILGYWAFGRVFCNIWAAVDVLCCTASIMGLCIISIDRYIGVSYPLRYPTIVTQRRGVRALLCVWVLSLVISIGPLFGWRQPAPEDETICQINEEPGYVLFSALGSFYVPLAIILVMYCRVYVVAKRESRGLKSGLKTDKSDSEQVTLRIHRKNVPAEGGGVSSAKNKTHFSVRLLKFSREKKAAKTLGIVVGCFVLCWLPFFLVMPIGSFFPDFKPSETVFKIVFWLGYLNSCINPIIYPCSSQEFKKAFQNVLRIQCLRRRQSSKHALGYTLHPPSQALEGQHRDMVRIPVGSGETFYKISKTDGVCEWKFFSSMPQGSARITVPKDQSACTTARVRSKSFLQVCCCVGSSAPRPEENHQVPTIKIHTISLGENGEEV

[2] = molecular target: T2, 5-hydroxytryptamine receptor 1A (Homo sapiens, UniProt P08908); experiment: Binding affinity to 5-HT1A receptor (unknown origin)
T2 sequence (P08908 whole entry): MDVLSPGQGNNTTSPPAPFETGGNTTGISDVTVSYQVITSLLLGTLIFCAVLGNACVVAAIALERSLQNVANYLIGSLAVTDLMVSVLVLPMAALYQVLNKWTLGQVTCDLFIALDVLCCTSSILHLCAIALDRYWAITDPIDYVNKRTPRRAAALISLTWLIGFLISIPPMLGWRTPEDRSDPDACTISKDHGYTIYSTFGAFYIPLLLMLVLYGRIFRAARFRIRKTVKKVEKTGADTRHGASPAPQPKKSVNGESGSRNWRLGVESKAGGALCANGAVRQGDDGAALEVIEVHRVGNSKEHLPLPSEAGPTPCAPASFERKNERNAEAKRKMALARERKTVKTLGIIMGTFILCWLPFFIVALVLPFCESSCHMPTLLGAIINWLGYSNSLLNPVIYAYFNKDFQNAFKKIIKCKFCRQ

[3] = molecular target: 5-hydroxytryptamine receptor 2A (Homo sapiens, UniProt P28223); experiment: Agonist activity at human 5-HT2A receptor expressed in CHO-K1 cells co-expressing Galpha16 assessed as increase in calcium mobilization measured for 30 secs by aequorin-derived luminescence assay; assay type: functional, cell-based
Sequence of 5-hydroxytryptamine receptor 2A (P28223 whole entry): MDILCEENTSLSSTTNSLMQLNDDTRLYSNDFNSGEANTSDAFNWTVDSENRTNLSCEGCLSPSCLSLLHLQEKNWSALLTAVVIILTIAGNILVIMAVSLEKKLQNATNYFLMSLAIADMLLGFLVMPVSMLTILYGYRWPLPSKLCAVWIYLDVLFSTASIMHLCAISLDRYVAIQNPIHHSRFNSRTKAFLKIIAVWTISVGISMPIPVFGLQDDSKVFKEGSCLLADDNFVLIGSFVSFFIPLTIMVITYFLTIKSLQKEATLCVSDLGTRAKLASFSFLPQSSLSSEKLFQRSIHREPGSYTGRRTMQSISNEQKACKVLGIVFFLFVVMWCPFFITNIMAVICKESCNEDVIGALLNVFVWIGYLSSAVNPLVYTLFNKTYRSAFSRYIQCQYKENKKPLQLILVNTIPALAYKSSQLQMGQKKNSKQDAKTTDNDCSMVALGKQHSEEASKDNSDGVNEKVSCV

Structure (SMILES) | Ki [1] [nM] | Ki [2] [nM] | EC50 [3] [nM]
COc1ccccc1N1CCN(CCCNc2cc(=O)n(C)c(=O)n2C)CC1 | 127.9 | 213 | –
CC(N)Cc1c[nH]c2ccc(O)cc12 (stereo not drawn) | – | – | 2
